Measured values as given in paper PMC3679022, “A Cancer Specific Cell-Penetrating Peptide, BR2, for the Efficient Delivery of an scFv into Cancer Cells” (PLoS ONE, 2013).

Columns and labels:
[1] = test system: cancer cells (HeLa, HCT116 and B16/F10); assay: Confocal laser scanning microscopy of FITC-labeled peptide uptake, cancer cells; format: cell-based, human, mouse; conditions: FITC-labeled peptide 5 µM, 30 min, 37°C, live unfixed cells
Procedure: To investigate the cell-penetrating ability and the intracellular distribution of the internalized peptides, live confocal microscopy was performed on three cancer lines (HeLa, HCT116 and B16/F10) and three normal cell lines (HaCat, BJ and NIH 3T3). Briefly, cells (2×10^5) were plated on a glass coverslip placed in a 6-well plate, grown overnight, and then incubated with FITC-labeled peptides (5 µM for each cell line) for 30 min. The cells were then rinsed three times with phosphate buffered saline (PBS, pH 7.4), and mounted on microscope slides with fluorescence mounting solution (Dako Corp, Carpinteria, CA). Colocalization of BR2 with lysosomes was observed by using LysoTracker Red DND-99 (Molecular Probe, Eugene, OR). To avoid the effects of fixation artifacts, involving both methanol and paraformaldehyde, cells were not fixed, [27]. The distribution of FITC-labeled peptides was analyzed using a confocal scanning laser Zeiss LSM 510 microscope (Jena, Germany) equipped with a 40× and 20× objective. Fluorophores were excited with an argon laser (488 nm) for FITC and a HeNe laser (543 nm) for LysoTracker Red.
(B,C) In vitro cytotoxicity of peptides.

[2] = test system: HCT116 cells (K-ras mutated cells); assay: Cell proliferation assay (MTT); format: cell-based, human; set-up: dose or concentration left out as unconfirmed; conditions: same concentrations as fusion proteins (Fig. S4:), 24 h
Procedure: To assess the anti-proliferative activity of peptides and anti-Ras scFv fusion proteins, HCT116 cells (K-ras mutated cells) were seeded in 96-well plates at a density of 2×10^4 cells/well in 100 µL of DMEM supplemented with 10% FBS and cultured for 24 h at 37°C. […] Cell viability was measured with the 3-(4,5-dimethylthiazol-2-yl)-2,5-diphenyl tetrazolium bromide (MTT) assay using the CellTiter 96® Non-radioactive Cell Proliferation assay kit (Promega, Madison, WI) according to the manufacturer’s instructions. The absorbance of the solution was measured at 570 nm using a Microplate Reader (Bio-Rad). Cell viability was expressed as the percentage of viable cells treated with scFv or peptide-scFv fusion proteins compared to the PBS-treated control (100%). All experiments were done in triplicate.
Figure 4 Intracellular uptake of peptides and anti-Ras scFv fusion proteins and their anti-proliferative activity. […] (B) Protein uptake was analyzed by Western blotting of fractionated lysates from HCT116 cells treated with PBS, anti-Ras scFv, BR2- or Tat-scFv fusion protein (each, 2 µM) at 37°C for 2 h. […] Cell proliferation was determined using the MTT assay. […]
HCT116 cells were seeded in 96-well plates at a density of 2×10^4 cells/well in 100 μl of DMEM supplemented with 10% FBS and cultured for 24 h at 37°C. […] The absorbance of the solution was measured at 570 nm using a Microplate Reader (Bio-Rad). […]

[3] = test system: cancer cell lines (HeLa, HCT116 and B16/F10); assay: In vitro cytotoxicity assay (LDH leakage), cancer cell lines; conditions: 100 µM peptide, 24 h, 37°C; 0.2% Triton X-100 = 100%; n = 3
Procedure: (§1) The cytotoxicity of peptides to mammalian cells was investigated by assessing the release of lactate dehydrogenase (LDH) from cancer and normal cells. The amount of LDH released from damaged cells into the supernatant was measured using the Cytotoxicity Detection Kit (Roche Applied Science, Germany) according to the manufacturer’s instructions. In brief, cells were plated onto 96-well microplates (1×10^4 cells per well) in complete DMEM supplemented with 10% FBS and incubated overnight at 37°C to allow for attachment and spreading of cells. After 24 h of incubation, cells were treated with various concentrations of peptides (0–100 µM) and incubated for another 24 h at 37°C. The extracellular medium from each well was transferred to a new microplate and incubated for 10 min with 100 µl/well reaction mixture, followed by a stop solution. Absorbance was measured at 490 nm by using an ELISA plate reader. LDH release from cells lysed with 0.2% Triton X-100 in PBS was defined as 100% leakage and LDH release from untreated cells as 0% leakage.
(§2) (B,C) In vitro cytotoxicity of peptides. (B) Membrane disturbance was measured by lactate dehydrogenase (LDH) leakage from the indicated cell lines 24 h after peptide treatment. LDH leakage from cells seeded in a 96-well plate at 10,000 cells/well was measured after exposure to 1, 2, 5, 10, 20, 50 or 100 µM peptides for 24 h. […]

[4] = test system: normal cell lines (HaCat, BJ and NIH 3T3); assay: In vitro cytotoxicity assay (LDH leakage), normal cell lines; conditions: 24 h, 37°C
Procedure: as §1, §2

RAGLQFPVGRLLRRLLR [BR2] was tested, and the “cellular uptake (confocal microscopy)” value [1] was “readily internalized”, the “anti-proliferative activity of peptide alone” value [2] was “did not show any detectable inhibitions” and the LDH leakage [3] was 40–60%. For the same sequence, the LDH leakage ([4]; 100 µM peptide, 0.2% Triton X-100 = 100%, n = 3) was about 17% and the LDH leakage ([4]; peptide concentrations below 70 µM) was “not detected”.
